One data set relates to Staph. Aur. Nature of the data set: antimicrobial activity, minimal inhibitory concentration, Staph. Aur. The format is cell-based. As to the method:
(§1) The antimicrobial activity of some compounds according to the present invention was measured and the results are shown in the following Tables. The activity is indicated as the minimal inhibitory concentration in μg/ml.

For the next data set, the system named is B. Cereus. As to the kind of experiment: antimicrobial activity, minimal inhibitory concentration, B. Cereus. The format is cell-based. The conditions noted are these: Bacillus cereus. As for the experimental part:
as §1

A further data set deals with Salm. Typh. As to the kind of experiment: antimicrobial activity, minimal inhibitory concentration, Salm. Typh. The format is cell-based. The conditions noted are these: read-out: minimal inhibitory concentration. As to the method: as §1
The test system of data set [1] is E. Coli. Nature of the data set: antimicrobial activity, minimal inhibitory concentration, E. Coli. The conditions noted are these: Escherichia coli. The format is cell-based. As to the method:
as §1

The next data set relates to Cand. Alb. Nature of the data set: antimicrobial activity, minimal inhibitory concentration, Cand. Alb. In kind it is cell-based. As for the experimental part: as §1
Another data set relates to Trichophyt. Rubrum. Nature of the data set: antimicrobial activity, minimal inhibitory concentration, Trichophyt. Rubrum. The format is cell-based. As to the method: as §1
A further data set concerns Crypt. Neof. Nature of the data set: antimicrobial activity, minimal inhibitory concentration, Crypt. Neof. The format is cell-based. As to the method:
as §1

A further data set deals with Mycoplasma gallisept. As to the kind of experiment: antimicrobial activity, minimal inhibitory concentration, Mycoplasma gallisept. In kind it is cell-based. As for the experimental part:
as §1

The test system of the next data set is Proteus. As to the kind of experiment: antimicrobial activity, minimal inhibitory concentration, Proteus. The format is cell-based. As for the experimental part:
as §1

A further data set deals with Pseud. Aur. As to the kind of experiment: antimicrobial activity, minimal inhibitory concentration, Pseud. Aur. In kind it is cell-based. As to the method: as §1
The subject of another data set is Aspergillus Niger. As to the kind of experiment: antimicrobial activity, minimal inhibitory concentration, Aspergillus Niger. In kind it is cell-based. As to the method:
as §1

The test system of data set [2] is E. Coli. As to the kind of experiment: Systemic E. Coli infection in mice. The format is in vivo. As for the experimental part:
(§2) Some compounds of general formula Id were tested also in vivo.

In a further data set the test system is St. aur. Nature of the data set: Systemic St. aur infection in mice. In kind it is in vivo. As to the method:
as §2

Data set [3] relates to E. Coli. Nature of the data set: U. Tract infections in mice (E. Coli). The format is in vivo. The conditions noted are these: U. Tract infections (E. Coli), 2,5 mg × 10 days. As for the experimental part: as §2
The next data set is described as follows: in vivo. The conditions noted are these: mouse, po.
A short description of data set [4]: Acute oral LD50 in chicks. The conditions noted are these: chicken, in vivo.
Data set [5] in a line: growth promotion experiment with male turkeys for 4 weeks. The format is in vivo. The conditions noted are these: P<0.001. The text has this: The results were statistically significant (P<0.001).
A further data set has as its system B. Subtilis. Nature of the data set: antimicrobial activity, minimal inhibitory concentration, B. Subtilis. The format is cell-based. The conditions noted are these: Bacillus subtilis. As to the method: as §1
A short description of a further data set: Acute oral LD50 in mice. The conditions noted are these: mouse, in vivo.

SMILES strings stand for the structures. ≈ marks a conversion by molar mass, not a printed value.

The term LD50 denotes the dose expected to kill half of the subjects tested. A low value points to a more toxic substance.

For the compound `CCCNC(=NO)c1c[n+]([O-])c2ccccc2[n+]1[O-]` [Example 20, 2-(propylamino)-carboxamidoxime-quinoxaline-1,4-dioxide], the MIC with Staph. Aur. was 10 µg/mL (≈ 38.1 µM); with B. Cereus it was 25 µg/mL (≈ 95.3 µM); in the data set with Salm. Typh., 25 µg/mL (≈ 95.3 µM); against E. Coli [1] it was 25 µg/mL (≈ 95.3 µM); in the data set with Cand. Alb., 11 to 100 µg/mL (≈ 41.9 to 381 µM); in the data set on Trichophyt. Rubrum it was 11 to 100 µg/mL (≈ 41.9 to 381 µM). Further, the MIC against Crypt. Neof. is 11 to 100 µg/mL (≈ 41.9 to 381 µM); in the data set with Mycoplasma gallisept, 25 to 50 µg/mL (≈ 95.3 to 191 µM); in the data set on Proteus, 11 to 100 µg/mL (≈ 41.9 to 381 µM); against Pseud. Aur., 10 µg/mL (≈ 38.1 µM); with Aspergillus Niger, 11 to 100 µg/mL (≈ 41.9 to 381 µM). For the same compound, the Protection entry in the data set with E. Coli [2] (systemic E. Coli infection, 2,5 mg × 2 per day) is listed as “+ (indicates protection >80%)”; in the data set with St. aur (systemic St. aur infection, 5 mg × 2 per day) it was “- (indicates protection <50%)”; in the data set with E. Coli [3], “+ (indicates protection >80%)”.
As for `[O-][n+]1cc(C(=NO)NN2CCOCC2)[n+]([O-])c2ccccc21` [Example 25, 2-(N-morpholinoamino)-carboxamidoxime-quinoxaline-1,4-dioxide], the LD50 turned out to be 1240 mg/kg in the data set “in vivo” and 428 mg/kg in data set [4].
As for `CN1CCN(C(=NO)c2c[n+]([O-])c3ccccc3[n+]2[O-])CC1` [Example 26a, 2-(4'-methyl-piperazino)-carboxaldoxime-quinoxaline-1,4-dioxide], in [5] (50 g/ton in the feed), the “increase in weight gain” value is on record as 15.6%. For the same compound, the results for the LD50 (in the data set “in vivo”; in data set [4]) were 1240 mg/kg and 400 mg/kg, respectively.
Consider `CCOC(=O)NNC(=NO)c1c[n+]([O-])c2ccccc2[n+]1[O-]` [Example 35, 2-(carbazinic acid ethyl ester)-carboxaldoxime-quinoxaline-1,4-dioxide], for which the MIC in the data set on Staph. Aur. was 10 µg/mL (≈ 32.5 µM); with B. Subtilis, 10 µg/mL (≈ 32.5 µM); in the data set on Salm. Typh. it was 10 to 25 µg/mL (≈ 32.5 to 81.4 µM); against E. Coli [1], 40 to 50 µg/mL (≈ 130 to 163 µM); in the data set with Mycoplasma gallisept, 10 to 25 µg/mL (≈ 32.5 to 81.4 µM). Further, the Protection result is given as “+ (indicates protection >80%)” in the data set on E. Coli [2] (systemic E. Coli infection, 1,25 mg × 2 per day); “+ (indicates protection >80%)” with St. aur (systemic St. aur infection, 2,5 mg × 2 per day); “+ (indicates protection >80%)” in the data set on E. Coli [3]. Moreover, the “increase in weight gain” value came out at 18.7% in data set [5] (30 g/ton in the feed), 18.5% in [5] (50 g/ton in the feed) and 16% in data set [5] (75 g/ton in the feed). Further, the results for the LD50 (in the data set “Acute oral LD50 in mice”; in [4]) were 4950 mg/kg and 1500 mg/kg, respectively.

These data come from US4317824A, “Derivatives of quinoxaline-1,4-dioxides” (Abic, Ltd., priority 1976, dated 1982).
